# Several values for one entry are separate records, joined by “and”; a condition that tells them apart may be missing. Equal values may be shown once.
# Test system: MDA-MB-231/TGL cells
# Assay: metabolomic assay (polar metabolite profiling, mass spectrometry)
# Format: cell-based, human
# Description: Cells were seeded in a 10 cm cell culture plate with DMEM containing 10% FBS, 0.2 mM L-glutamine and 1% penicillin/streptomycin. After 16 hours of incubation, metabolites were extracted from the cells using 80% methanol. The remaining steps were carried out with no change according to the methods of Goncalves et al, PNAS, 115:4, E743-E752 (2018). All data analyses were done using MetaboAnalyst.
# 7 × 10^6 cells were seeded in 10-cm cell culture plates with DMEM containing 10% FBS, 0.2 mM L-glutamine and 1% penicillin/streptomycin. Additionally, MCF7/TGL/pQ was cultured in media containing 0.5 µgml^-1 puromycin and 25 mM HEPES. After 16 hours of incubation, metabolites were extracted from the cells using 80% methanol. The remaining steps were carried out by Weill Cornell Medicine Proteomics and Metabolomics Core Facility according to M. D. Goncalves et al., Proc Natl Acad Sci USA 115, E743-E752 (2018). All data analyses were done using MetaboAnalyst 4.0 (www.metaboanalyst.ca/).
# To investigate whether 250 ppm CO mimics hypoxia, the HiF1α protein levels were examined in CO treated MCF7/TGL and MDA-MB-231/TGL cells. […] To determine whether 250 ppm CO affects metabolism, polar metabolites were profiled using two breast cancer cell lines, MCF7/TGL and MDA-MB-231/TGL (FIGS. 7-9).
# [1] = MDA-MB-231/TGL cells treated with CO (250 ppm), replicates CO 1-3
# [2] = MDA-MB-231/TGL cells, 250 ppm CO, 16 hours
smiles,measurement,setting,value
"[C-]#[O+] [CO, Carbon monoxide]",Peak Height of metabolite intensity: Nicotinamide ribotide (HMDB00229),[1],"110,026 and 75,372 and 93,843"
same,Peak Height of metabolite intensity: Ornithine (HMDB00214),[1],"960,744 and 1,035,848 and 1,261,077"
same,Peak Height of metabolite intensity: Orotic acid (HMDB00226),[1],"303,308 and 293,998 and 226,604"
same,Peak Height of metabolite intensity: Oxidized glutathione (HMDB03337),[1],"3,793,739 and 4,422,168 and 4,949,576"
same,Peak Height of metabolite intensity: Oxoglutaric acid (HMDB00208),[1],"40,551,530 and 45,257,220 and 44,892,300"
same,Peak Height of metabolite intensity: Pantothenic acid (HMDB00210),[1],"66,785,200 and 78,653,480 and 81,031,300"
same,Peak Height of metabolite intensity: Phenylacetylglycine (HMDB00821),[1],"1,773,254 and 1,725,235 and 1,760,408"
same,Peak Height of metabolite intensity: Phenyllactic acid (HMDB00779),[1],"59,693 and 75,824 and 89,853"
same,Peak Height of metabolite intensity: Phosphoenolpyruvic acid (HMDB00263),[1],"1,119,695 and 505,583 and 468,849"
same,Peak Height of metabolite intensity: Phosphorylcholine (HMDB01565),[1],"926,340,400 and 954,637,100 and 1,004,940,000"
same,Peak Height of metabolite intensity: Propionylcamitine (HMDB00824),[1],"42,262,630 and 48,738,950 and 53,591,860"
same,Peak Height of metabolite intensity: Pyridoxine (HMDB00239),[1],"9,272,513 and 10,102,820 and 10,351,980"
same,Peak Height of metabolite intensity: Pyroglutamic acid (HMDB00267),[1],"95,285,270 and 98,786,160 and 116,343,300"
same,Peak Height of metabolite intensity: Pyruvic acid (HMDB00243),[1],"2,402,001 and 2,700,020 and 2,237,894"
same,Peak Height of metabolite intensity: Riboflavin (HMDB00244),[1],"84,676 and 97,270 and 112,665"
same,Peak Height of metabolite intensity: S-Adenosylmethionine (HMDB01185),[1],"6,948,937 and 8,437,885 and 9,944,495"
same,Peak Height of metabolite intensity: S-Lactoylglutathione (HMDB01066),[1],"2,114,224 and 2,485,483 and 1,817,914"
same,"Peak Height of metabolite intensity: Sedoheptulose 1,7-bisphosphate (HMDB60274)",[1],"119,260 and 114,671 and 139,219"
same,Peak Height of metabolite intensity: Succinic acid (HMDB00254),[1],"9,808,415 and 11,432,620 and 14,473,460"
same,Peak Height of metabolite intensity: Taurine (HMDB00251),[1],"250,114,800 and 184,320,000 and 217,876,200"
same,Peak Height of metabolite intensity: Taurochenodesoxycholic acid (HMDB00951),[1],"47,031 and 60,620 and 60,122"
same,Peak Height of metabolite intensity: Thiamine (HMDB00235),[1],"24,404,230 and 28,664,720 and 27,656,500"
same,Peak Height of metabolite intensity: Threonic acid (HMDB00943),[1],"107,442,800 and 103,948,700 and 114,088,000"
same,Peak Height of metabolite intensity: Thymidine 5′-triphosphate (HMDB01342),[1],"177,094 and 147,940 and 156,549"
same,Peak Height of metabolite intensity: Thymidine (HMDB00273),[1],"143,606 and 96,280 and 76,717"
same,Peak Height of metabolite intensity: Thymine (HMDB00262),[1],"962,069 and 884,966 and 960,234"
same,Peak Height of metabolite intensity: Ureidosuccinic acid (HMDB00828),[1],"1,132,717 and 1,612,814 and 1,811,192"
same,Peak Height of metabolite intensity: Uric acid (HMDB00289),[1],"2,415,527 and 1,430,740 and 933,580"
same,Peak Height of metabolite intensity: Uridine 5′-diphosphate (HMDB00295),[1],"2,964,858 and 3,462,504 and 2,781,952"
same,Peak Height of metabolite intensity: Uridine 5′-monophosphate (HMDB00288),[1],"904,984 and 1,359,673 and 975,233"
same,Peak Height of metabolite intensity: Uridine (HMDB00296),[1],"1,893,519 and 318,302 and 299,157"
same,Peak Height of metabolite intensity: Uridine diphosphate glucose (HMDB00286),[1],"4,959,327 and 5,703,347 and 6,869,287"
same,Peak Height of metabolite intensity: Uridine diphosphate-N-acetylglucosamine (HMDB00290),[1],"20,151,160 and 26,809,930 and 32,502,900"
same,Peak Height of metabolite intensity: Uridine triphosphate (HMDB00285),[1],"1,308,516 and 1,268,414 and 1,538,242"
same,Peak Height of metabolite intensity: Urocanic acid (HMDB00301),[1],"334,329 and 651,672 and 192,858"
same,Peak Height of metabolite intensity: Xanthine (HMDB00292),[1],"1,967,615 and 1,894,384 and 2,180,514"
same,Peak Height of metabolite intensity: Xanthylic acid (HMDB01554),[1],"36,455 and 11,062 and 9,617"
same,Peak Height of metabolite intensity: cis-Aconitic acid (HMDB00072),[1],"20,740,980 and 23,097,840 and 24,649,890"
same,Peak Height of metabolite intensity: dCTP (HMDB00998),[1],"7,042"
same,Peak Height of metabolite intensity: dGDP (HMDB00960),[1],"10,335,950 and 11,215,290 and 10,659,650"
same,Peak Height of metabolite intensity: dUMP (HMDB01409),[1],"484,834 and 490,872 and 603,149"
same,citric acid and phosphoenolpyruvic acid,[2],did not provide statistically significant results
same,"nine common metabolites (fumaric acid, L-Dihydroorotic acid, D-2-Hydroxyglutaric, malic acid, NAD, GDP-glucose, pyruvic acid, inosinic acid, oxoglutaric acid)",[2],significantly downregulated
same,"pyruvic acid, oxoglutaric acid, malic acid, and fumaric acid (TCA intermediates)",[2],significantly downregulated
same,abundance of metabolites tested (metabolomics profiling),"MDA-MB-231/TGL cells, 250 ppm carbon monoxide for 16 hours",reduced the abundance of the majority of metabolites tested

# From patent US20230346831A1, “METHODS FOR TREATING […] USING LOW DOSE CARBON MONOXIDE” (priority 2020, published 2023)
